“Also recorded” adds a separate entry of the source. Like-named read-outs stand apart in the source and are kept apart here.
Tests used:
[1] = tested on: HepG2 cells (hepatocellular carcinoma); conditions: compound 0.5 ∝g/ml; WST-1
[2] = in vitro; conditions: human
Experimental: (§1) For testing the anti-proliferation activity of the compounds in human cell lines and calculation of IC50, cancer cells including HepG2, HeLa and Hep3B (4×10^5 cells/well) and normal L-02 cells (5×10^5 cells/well) were respectively seeded in 96-well plates in 100 μl of culture medium and incubated for about 12 hrs at 37° C. The cells were treated with two-fold serial dilutions of the drugs for 48 hrs. Medium was removed and 100 μl of culture medium containing 1 μM WST-1 (water soluble tetrazolium-1) were added to each well. The cells were incubated for 2 hrs, and absorbance at 405 nm (reference at 630 nm) was then measured. To construct the standard curve of the relationship between cell number and absorbance at OD405, serial dilutions of cells with known cell numbers were seeded and incubated for six hrs before being measured by the WST-1 assay. The cell viability was expressed as the ratio of the number of live cells treated with a candidate compound versus that of the DMSO-treated cells.
(§2) A pair of human cell lines, L-02 (normal liver cells) and HepG2 (a liver cancer cell line) was treated with 17beta-Deacetyltanghinin for 48 hrs. […] In FIG. 2B-H, quantification of viable cell numbers was carried out using WST-1 (Water-soluble tetrazolium-1) assay.
(§3) To further test 17beta-Deacetyltanghinin and to determine the IC50 values, besides L-02 and HepG2, Hep3B (another liver cancer cell line which is p53-negative), HeLa (cervical cancer cell line), HK1 and C666-1 (nasopharyngeal carcinoma) cells and a hTert-immortalized normal nasopharyngeal cell line (NP460) were treated by 17beta-Deacetyltanghinin for 48 hrs, and the relative cell vabilities were determined by WST-1 assay (FIG. 2B, C).

[3] = tested on: cancer cell lines (HepG2, Hep3B, HeLa, HK1, C666-1); experiment: cells; format: cell-based, human; conditions: for anti-proliferative (anticancer) activity, in words: 48 hrs
Experimental: as §1, §3

[4] = target: T1, hMcm2-hMcm6 interaction (MCM complex) (Homo sapiens, UniProt P49736+Q14566); experiment: Co-immunoprecipitation of MCM subunits in HeLa cell extracts; format: cell-based; conditions: asynchronous HeLa cells, whole cell extracts
T1 construct: endogenous in cells; host or cells: HeLa
T1 sequence (P49736 2-904 limits assumed): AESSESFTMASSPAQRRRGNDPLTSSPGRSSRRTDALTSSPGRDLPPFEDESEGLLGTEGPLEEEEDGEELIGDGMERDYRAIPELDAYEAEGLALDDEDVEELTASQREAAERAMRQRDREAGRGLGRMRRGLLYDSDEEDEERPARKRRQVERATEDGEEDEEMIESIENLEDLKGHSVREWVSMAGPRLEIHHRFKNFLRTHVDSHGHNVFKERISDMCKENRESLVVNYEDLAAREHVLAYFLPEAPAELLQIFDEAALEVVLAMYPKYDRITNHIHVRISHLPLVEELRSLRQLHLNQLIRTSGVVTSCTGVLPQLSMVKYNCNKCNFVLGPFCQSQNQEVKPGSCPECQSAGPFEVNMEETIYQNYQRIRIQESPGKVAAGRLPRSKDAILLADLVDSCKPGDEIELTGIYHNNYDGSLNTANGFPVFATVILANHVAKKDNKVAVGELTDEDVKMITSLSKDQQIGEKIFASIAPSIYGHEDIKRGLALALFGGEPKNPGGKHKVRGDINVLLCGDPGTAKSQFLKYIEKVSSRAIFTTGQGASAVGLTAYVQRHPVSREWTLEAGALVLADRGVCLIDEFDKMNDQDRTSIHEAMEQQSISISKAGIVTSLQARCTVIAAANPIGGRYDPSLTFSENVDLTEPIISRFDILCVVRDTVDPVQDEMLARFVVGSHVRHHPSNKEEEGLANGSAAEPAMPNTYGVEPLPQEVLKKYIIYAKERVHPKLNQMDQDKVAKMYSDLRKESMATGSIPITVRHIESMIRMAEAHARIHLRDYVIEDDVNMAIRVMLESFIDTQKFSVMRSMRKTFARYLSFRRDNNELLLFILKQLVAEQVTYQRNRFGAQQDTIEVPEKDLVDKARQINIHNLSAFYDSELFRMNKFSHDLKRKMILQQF
T1 sequence (Q14566 whole entry): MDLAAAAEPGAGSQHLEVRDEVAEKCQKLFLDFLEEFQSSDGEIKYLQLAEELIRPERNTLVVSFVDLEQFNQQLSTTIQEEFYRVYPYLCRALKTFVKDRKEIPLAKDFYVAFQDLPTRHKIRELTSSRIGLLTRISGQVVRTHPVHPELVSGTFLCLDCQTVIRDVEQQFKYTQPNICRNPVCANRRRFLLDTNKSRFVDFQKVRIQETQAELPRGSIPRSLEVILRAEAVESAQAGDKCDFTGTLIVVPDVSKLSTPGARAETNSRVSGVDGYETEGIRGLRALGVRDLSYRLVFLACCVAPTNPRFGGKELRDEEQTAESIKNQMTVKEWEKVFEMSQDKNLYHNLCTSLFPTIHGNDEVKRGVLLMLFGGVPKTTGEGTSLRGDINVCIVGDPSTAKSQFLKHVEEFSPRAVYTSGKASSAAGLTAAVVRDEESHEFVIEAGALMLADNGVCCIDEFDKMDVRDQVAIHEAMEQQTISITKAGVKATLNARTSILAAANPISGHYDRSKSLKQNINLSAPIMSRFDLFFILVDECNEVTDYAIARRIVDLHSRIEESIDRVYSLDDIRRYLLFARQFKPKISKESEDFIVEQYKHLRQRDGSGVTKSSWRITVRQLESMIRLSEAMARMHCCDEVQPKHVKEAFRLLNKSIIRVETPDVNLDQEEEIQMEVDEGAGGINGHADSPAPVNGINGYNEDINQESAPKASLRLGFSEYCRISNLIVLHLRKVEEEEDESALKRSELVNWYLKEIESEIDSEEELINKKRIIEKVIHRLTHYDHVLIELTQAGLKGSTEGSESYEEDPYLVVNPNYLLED
Experimental: To test if 17beta-Deacetyltanghinin targets hMcm2 and hMcm6 proteins in human cells, possible co-immunoprecipitation (co-IP) of the two proteins was tested in human cell extracts from cells treated with 17beta-Deacetyltanghinin. In FIG. 3, asynchronous HeLa cells were treated with DMSO or 17beta-Deacetyltanghinin (DAT) (FIG. 3A), or with DMSO, 17beta-Neriifolin (NRF) or 17beta-Deacetyltanghinin diol (Diol) (FIG. 3B), and whole cell extracts were prepared and further incubated with the compound before being used for co-IP in the presence of the compound. The immunoprecipitates were then immunoblotted with anti-hMcm 6, anti-hMcm2, anti-hMcm4 and anti-hMcm7 antibodies.

[5] = tested on: cancer cells (HeLa, HepG2); experiment: Flow cytometry / Annexin V staining (cell cycle, apoptosis) in cancer cells; format: cell-based, human; conditions: cancer cells
Experimental: Both floating and attached cells were collected and washed once with PBS. Cells were fixed in 70% ethanol for 1 hr to overnight at −20° C., washed thoroughly with PBS, and then stained in 50 μg/ml RNase A, 0.1% Triton X-100, 0.1 mM EDTA (pH 7.4), and 50 μg/ml propidium iodide for 30 min at 4° C. Samples were analyzed with the FACSort instrument (Becton Dickinson).
Moreover, inhibition of DNA replication and subsequent induction of apoptosis by 17beta-Deacetyltanghinin could be shown by flow cytometry. In FIG. 7. Hela cells were blocked at M phase by Nocodazole (Noc.; FIG. 7A), the G1/S transition by mimosine (MMS; FIG. 7B), or at early S phase by Hydroxyurea (HU; FIG. 7C) and then released into fresh medium in the presence of 17beta-Deacetyltanghinin (DAT). The cells at different time points after release were analyzed by follow cytometry. Ayn. means asynchronous cells. Untreated cells and cells treated with the solvent DMSO could complete M, G1 and S phases after release (FIG. 7A). […] Similarly, cells released from the Mimosine (MMS) arrest (at the G1/S transition; FIG. 7B) or Hydroxyurea (HU) arrest (in early S phase; FIG. 7C) could not finish S phase in the presence of 17beta-Deacetyltanghinin.
In FIG. 8A, flow cytometry was performed to analyze the DNA contents in HepG2 and L-02 cells treated with 17beta-Deacetyltanghinin at various concentrations for 24 hrs. In FIG. 8B, Hela cells were treated with 17beta-Deacetyltanghinin for 24 hrs and labeled with Annexin V-Cy3 (Arm. Cy3) for 20 min. Mitoxantrone (MTX), a clinical anticancer drug that can induce apoptosis in cancer cells, was used as a positive control.

[6] = target: T2, hMcm2 and hMcm6 (Homo sapiens, UniProt P49736+Q14566); experiment: Immunostaining / GFP fluorescence microscopy of MCM nuclear localization in HeLa cells; format: cell-based; conditions: 24 hrs
T2 construct: the endogenous hMcm2 and hMcm6 were detected by specific antibodies against these proteins; endogenous in cells; host or cells: HeLa
T2 sequence (P49736 2-904): as the sequence (P49736 2-904 limits assumed) above
T2 sequence (Q14566 whole entry): as the sequence (Q14566 whole entry) above
Experimental: To study the effect of the anticancer compounds on the interaction between hMcm2 and hMcm6 in the cells, immunostaining was performed to detect the sub-cellular localization of the proteins. HeLa cells grown on cover slips (coated with poly-D-lysine) with or without drug treatment were fixed with 4% PFA in PBS at room temperature for 20 min. After permeabilization with 0.1% Triton X-100 and 1% BSA in PBS for 20 min, cells were blocked with 1% BSA and then incubated with rabbit anti-hMcm6 (Santa Cruz; 1:500) and mouse anti-hMcm2 (Becton Dickinson; 1:500) primary antibodies at room temperature for 1 hr. Cells were then incubated with Alexa Fluor 488-conjugated donkey […] antibody and Alexa Fluor 594-conjugated donkey anti-mouse antibody (Invitrogen; 1:500) at room temperature for 1 hr. Three washes with PBS were performed after each round of antibody incubation. Cells were then incubated with Hochest 33852 (Sigma Chemical Company; 1 μg/ml) at room temperature for 15 min for nuclear staining and washed with PBS three times again. At last, cells were mounted and observed under the fluorescence microscope (Nikon TE2000E).
Because pair-wise interactions among the MCM subunits are required for the MCM heterohexameric ring structure, which is essential for their import into the nucleus, disruption of the interaction between hMcm2 and hMcm6 should destroy the hexamer and result in failure of nuclear localization of MCM proteins. To test this, we employed both indirect fluorescence microscopy (immunostaining) using antibodies against the endogenous MCM proteins and direct fluorescence microscopy after transfection with plasmids to express hMcm2-GFP and hMcm6-GFP in the cells.
In immunostaining, HeLa cells were treated by 17beta-Deacetyltanghinin for 24 hrs, and the endogenous hMcm2 and hMcm6 were detected by specific antibodies against these proteins. […] In direct fluorescence microscopy, HeLa cells expressing hMcm2-GFP and hMcm6-GFP were treated with 17beta-Deacetyltanghinin for 36 hrs starting at 4 hrs post-transfection with the plasmids expressing hMcm2-GFP and hMcm6-GFP.

[7] = tested on: HeLa cells xenograft tumors; experiment: In vivo anticancer activity, nude mice xenograft model; conditions: 10 mg/kg per injection, first 10 days
Experimental: In vivo anticancer activity tests were carried out in the nude mice xenograft model by inoculating nude mice with HeLa cells in both the left and right flanks. After random grouping, nude mice were treated intraperitoneally with 17beta-Deacetyltanghinin or the solvent (30% of propylene glycol in PBS). In the first test, 3 days after tumor inoculation when small tumors started to form, two groups of nude mice were treated on days 1-3 and 6-10 with 3.5 and 7.0 mg-drug/kg-body weight of 17beta-Deacetyltanghinin respectively, and another group of control mice were treated with the same volume of the solvent (FIG. 10A). In FIG. 10A, the tumor volume data represented by the small-size data point symbol linked with thin lines were obtained on the days when both measurement of tumor size and drug injections were performed, and the tumor volume data represented by the large-size data point symbol linked with thick lines were obtained on the days without drug injection. Each tumor size was average of ten tumors in five mice in each group.
(§4) A further set of animal experiments was then conducted with a longer period of time, in which fifteen drug injections at 5.0 mg/kg were performed one week after tumor inoculation when the tumor size reached 0.05-0.1 cm^3. In FIG. 10B, drug injections and tumor size measurements were performed on the days represented by the data points, and the photographs in FIG. 10C were taken on day 20.

[8] = In vivo toxicity assessment in nude mice; conditions: 10 mg/kg per injection, tumor-bearing nude mice
Experimental: as §4
In FIG. 11, S refers to solvent-treated mice without tumor inoculation; S+T represents solvent-treated mice with tumor inoculation; DAT refers to 17beta-Deacetyltanghinin-treated mice without tumor inoculation; DAT+T represents 17beta-Deacetyltanghinin-treated mice with tumor inoculation; and P+T refers to Paelitaxel-treated mice with tumor inoculation. Three out of the five mice with intermediate tumor size in each group were selected for physiological parameters examination. The tumors (T) and internal organs including liver (L), heart (H) and kidney (K) were dissected from each mouse.
Furthermore, blood from each mouse was also collected for the tests of the ALT (alanine aminotransferase) and LDH (Lactate dehydrogenase) activities. […] The results of both tests were represented as the values of differently treated mice relative to the untreated ones.

[9] = tested on: L-02 cells (normal human liver cells); experiment: in vitro; conditions: compound 0.5 ∝g/ml; WST-1
Experimental: as §1, §2, §3

Molecule: C[C@]12CC[C@H](O)C[C@H]1CC[C@@H]1[C@@H]2CC[C@]2(C)[C@@H](c3ccc(=O)oc3)C[C@H]3O[C@]132 [Resibufogenin]
- HepG2 cell viability (%) [1]: 1.4%
- viability [2]: 37.9%

Molecule: 17beta-Deacetyltanghinin diol
- anti-proliferative (anticancer) activity, in words ([3]; WST-1 assay): lower anticancer activity than 17beta-Deacetyltanghinin
- disruption of hMcm2-hMcm6 interaction (co-IP) [4]: weaker activity
- induction of apoptosis (sub-G1 population, flow cytometry) [5]: able to induce apoptosis of cancer cells
- nuclear localization of endogenous hMcm2 and hMcm6 (immunostaining) [6]: weaker activity

Molecule: COc1cc([C@@H]2c3cc4c(cc3[C@@H](O[C@@H]3O[C@@H]5CO[C@@H](C)O[C@H]5[C@H](O)[C@H]3O)[C@H]3COC(=O)[C@H]23)OCO4)cc(OC)c1OP(=O)(O)O [VP16, Etoposide phosphate]
- selectivity between cancer and normal cells, in words ([3]; cancer vs normal cells, WST-1 assay): did not show significant selectivity

Molecule: CC(=O)O[C@H]1C(=O)[C@@]2(C)[C@H]([C@H](OC(=O)c3ccccc3)[C@]3(O)C[C@H](OC(=O)[C@H](O)[C@@H](NC(=O)c4ccccc4)c4ccccc4)C(C)=C1C3(C)C)[C@]1(OC(C)=O)CO[C@@H]1C[C@@H]2O [Paclitaxel, reference compound]
- antitumor activity compared with 17beta-Deacetyltanghinin, in words [7]: much less antitumor activities
- mortality from toxicity [8]: the mice died on day 10
- selectivity between cancer and normal cells, in words [3]: did not show significant selectivity; also recorded: more toxic to normal liver cells than liver cancer cells

Molecule: C[C@]12CC[C@H](O)C[C@H]1CC[C@@H]1[C@@H]2CC[C@]2(C)[C@@H](c3ccc(=O)oc3)CC[C@]12O [Bufalin]
- HepG2 cell viability (%) [1]: 13.7%
- viability [2]: 37.2%

Molecule: CO[C@H]1[C@H](O)[C@H](O[C@H]2CC[C@@]3(C)[C@H](CC[C@@H]4[C@@H]3CC[C@]3(C)[C@H](C5=CC(=O)OC5)CC[C@]43O)C2)O[C@@H](C)[C@@H]1O [17alpha-Neriifolin, reference compound]
- anti-proliferative (anticancer) activity, in words ([3]; WST-1 assay): little anti-proliferative activity
- HepG2 cell viability (%) [1]: 100%
- L-02 cell viability (%) [9]: 100%

Molecule: CC(=O)O[C@H]1[C@H]2O[C@]23[C@@H]2CC[C@@H]4C[C@@H](O)CC[C@]4(C)[C@H]2CC[C@]3(C)[C@H]1c1ccc(=O)oc1 [Cinobufagin]
- HepG2 cell viability (%) [1]: 1.5%
- viability [2]: 39.7%

Molecule: CO[C@H]1[C@H](O)[C@H](O[C@H]2CC[C@@]3(C)[C@H](CC[C@@H]4[C@@H]3CC[C@]3(C)[C@@H](C5=CC(=O)OC5)CC[C@]43O)C2)O[C@@H](C)[C@@H]1O [17beta-Neriifolin]
- disruption of hMcm2-hMcm6 interaction (co-IP) [4]: could also disrupt the hMcm2-hMcm6 interaction
- induction of apoptosis (sub-G1 population, flow cytometry) [5]: able to induce apoptosis of cancer cells
- nuclear localization of endogenous hMcm2 and hMcm6 (immunostaining) [6]: as efficiently as 17beta-Deacetyltanghinin

Molecule: CO[C@H]1[C@H](O)[C@H](O[C@H]2CC[C@@]3(C)[C@@H](C2)C[C@@H]2O[C@]24[C@@H]3CC[C@]2(C)[C@H](C3=CC(=O)OC3)CC[C@]42O)O[C@@H](C)[C@@H]1O [17alpha-Deacetyltanghinin, reference compound]
- anti-proliferative (anticancer) activity, in words ([3]; WST-1 assay): little anti-proliferative activity
- HepG2 cell viability (%) [1]: 97.2%
- L-02 cell viability (%) [9]: 100%

Reference: patent US11648258B2, “Method and compounds for inhibiting the MCM complex and their application in cancer treatment” (priority 2012, dated 2023)
